In the assay the target is T1, Wrightia tinctoria 11S globulin (WTG) (Wrightia tinctoria, UniProt A0A162EGL7).
T1 construct: native purification from seeds; signal peptide (first 26 residues) removed; cleaved at Asn284-Gly285 into acidic and basic subunits joined by disulphide Cys120-Cys291; 18 C-terminal residues not seen; homohexamer
In words: X-ray crystal structure of complex ([…] Å); co-purified ligand identified by MALDI-MS and HRMS. The following applies: naturally bound ligand; three pockets at interface of four chains between two trimers; two alternate orientations, 0.5 occupancy; crystals at pH 8.5. The assay is classed as binding.

T1 sequence (A0A162EGL7 entry or part of it): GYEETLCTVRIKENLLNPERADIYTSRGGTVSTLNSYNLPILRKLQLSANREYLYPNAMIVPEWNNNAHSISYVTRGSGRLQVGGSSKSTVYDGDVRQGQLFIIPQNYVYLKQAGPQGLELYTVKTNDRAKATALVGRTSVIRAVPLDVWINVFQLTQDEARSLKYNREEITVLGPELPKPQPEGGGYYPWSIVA
T1 sequence (A0A162EGL7 entry or part of it): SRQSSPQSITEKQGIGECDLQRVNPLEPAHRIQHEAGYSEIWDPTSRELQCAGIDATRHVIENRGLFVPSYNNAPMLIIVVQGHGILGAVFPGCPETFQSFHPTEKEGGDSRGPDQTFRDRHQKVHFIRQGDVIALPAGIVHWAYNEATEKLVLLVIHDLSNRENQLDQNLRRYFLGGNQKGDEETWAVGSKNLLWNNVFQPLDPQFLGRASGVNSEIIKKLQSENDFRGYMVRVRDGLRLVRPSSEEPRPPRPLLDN

As to `O=C(O)Cc1c[nH]c2ccccc12` [Indole-3-acetic acid], the “X-ray crystal structure of complex (1.7 Å); co-purified ligand identified by MAL” value is reported as “clearly revealed the presence of an IAA molecule in alternate orientation at the hydrophobic site”.

Values taken from PMC5498579, “A novel function for globulin in sequestering plant hormone: Crystal structure of Wrightia tinctoria 11S globulin in complex with auxin” (Scientific Reports, 2017).
